The values that follow are results of earlier work, collected in patent US20240238439A1, “HER3-BINDING ANTIBODY-DRUG CONJUGATE” (Hummingbird Bioscience Pte. Ltd., priority 2023, published 2024).

For the data set the following is noted: subset of EGFR-mutant and TKI-resistant lung cancers, and metastatic breast cancers; cited from earlier work.

For Patritumab-DXd, the clinical responses result was “clinical responses have been observed”.
